# From patent publication US20220054494A1, “METHODS FOR TREATING BLADDER AND URETHRA DYSFUNCTION AND DISEASE” (University of Pittsburgh - Of the Commonwealth System of …, priority 2019, published 2022)
# “Also recorded” adds a separate entry of the source.
# Columns and labels:
# [1] = tested on: deoxycorticosterone/salt-induced hypertension; details: chronic oral treatment of rats; Jackson et al. 2016; cited from earlier work
# [2] = Jackson et al., J Pharmacol Exp Ther 2016; cited from earlier work
# [3] = tested on: aged rats; experiment: Voiding analysis in metabolic cages, aged rats; format: in vivo, rat; details: aged rats; intravesical 5 μM forodesine plus 10 μM DEA-NONOate, 3 weeks of treatment; vs aged control rats
# [4] = tested on: aged rats; experiment: Voiding analysis in metabolic cages, aged rats; format: in vivo, rat; details: aged rats; intravesical 5 μM forodesine plus 10 μM DEA-NONOate, 3 weeks of treatment; vs aged control rats; remark: listed apart in the source
# Protocol: Experimental design: Young (3 months of age) and aged (25 to 30 months of age) Fisher 344 rats were used in these experiments. Some of the aged Fisher 344 rats were treated with 8-AG (5 mg kg/day via drinking water) for 1 month.
# Voiding analysis: Rats were placed in metabolic cages for 24 hr (once per week for the duration of the study). Voided urine was collected in cups attached to force displacement transducers (GRASS TECHNOLOGIES®, Warwick, R.I.) connected to a computer running WINDAQ™ data acquisition software (DATAQ™ Instruments Inc., Akron, Ohio). Data were averaged for 24 h, and voiding frequency, total voided volume, and volume per void were analyzed. Voiding frequency was calculated as the number of voiding events per hour during 24 h, and volume per void, which defines bladder capacity, was calculated as an average of the voids occurring during these periods.
# Animals: Male and female Fisher 344 rats were employed (Charles River; Wilmington, Mass. and the NIA rodent colony). Some rats were young (3 months of age), some were aged (25-30 months of age), and others were aged and treated with oral 8-AG (5 mg/kg/day; 6 weeks). Under isoflurane anesthesia and using an aseptic technique, an incision was made into the lower abdomen and in the scapular area. Sterile PE50 tubing was threaded subcutaneously from the lower abdomen to the scapular area and connected to a one-channel vascular access button (Intech Laboratories, Plymouth Meeting, Pa.). In the abdomen, the tubing was inserted into the bladder and secured with a small purse-string suture. The incisions were closed, and the animals were allowed to recover for 7-10 days before further experimentation. Animals were divided into three groups. A control group of aged rats received daily infusions with 10 μM DEA-NONOate (SIGMA-ALDRICH®, St. Louis, Mo.) in sterile 0.9% saline. A second group received 100 μM 8-AG plus 10 μM DEA-NONOate in 0.9% saline, and a third group received 5 μM forodesine (SIGMA-ALDRICH®) plus 10 μM DEA-NONOate in 0.9% saline. Bladders were instilled via a catheter tether kit (Instech Laboratories) connected to a syringe pump for continuous infusion (rate 200 μl/min; 30 minutes/daily) for 3-6 weeks. The Institutional Animal Care and Use Committee approved all procedures. The investigation conforms to the Guide for the Care and Use of Laboratory Animals published by the US National Institutes of Health (NIH Publication No. 85-23, revised 1996).
# Protocol 1: Young, aged, and 8-AG-treated aged rats were placed in metabolism cages for 24 hr once per week. The light cycle was from 7:00 AM to 7:00 PM, and food and water were provided ad libitum. Voided urine was collected in cups attached to force displacement transducers (GRASS TECHNOLOGIES®, Warwick, R.I.) that were connected to a computer running Windaq data acquisition software (DATAQ® Instruments I2nc., Akron, Ohio). Data were averaged for 24 h and analyzed for 12-h periods during the day (7:00 AM-7:00 PM) and night (7:00 PM-7:00 AM). Voiding frequency, total voided volume, and volume per void were analyzed. Voiding frequency was calculated as the number of voiding events per hour during 24 h and during the 12-h day and 12-h night periods. Volume per void, which defines bladder capacity, was calculated as an average of the voids occurring during these periods.
# Voiding Analysis: Young, aged, and 8-AG-treated aged rats were placed in metabolic cages (24 hr; once per week) for the duration of the study. The light cycle was from 7:00 AM to 7:00 PM, and food and water were provided ad libitum. Voided urine was collected in cups attached to force displacement transducers (Grass Technologies, Warwick, R.I.) connected to a computer (Windaq data acquisition software DATAQ Instruments Inc., Akron, Ohio). Data were averaged for 24 h and analyzed for 12-h periods during the day (7:00 AM-7:00 PM) and night (7:00 PM-7:00 AM). Voiding frequency, total voided volume, and volume per void were analyzed. […]
SMILES,development of deoxycorticosterone/salt-induced hypertension [1],diuresis [2],glucosuria [2],natriuresis [2],potassium excretion [2],inter-contraction interval [3],voided volume [4],voiding frequency [4]
"Nc1nc2c(nc(N)n2[C@@H]2O[C@H](CO)[C@@H](O)[C@H]2O)c(=O)[nH]1 [8-aminoguanosine, 8-Aminoguanosine, reference compound]",attenuate,induce,induce,induce,reduce,–,–,–
"O=c1[nH]cnc2c([C@@H]3N[C@H](CO)[C@@H](O)[C@H]3O)c[nH]c12 [forodesine, 7-[(2S,3S,4R,5R)-3,4-dihydroxy-5-(hydroxymethyl)pyrrolidin-2-yl]-3H,4H,5H-pyrrolo[3,2-d]pyrimidin-4-one, reference compound]",–,–,–,–,–,significant improvement; also recorded: significantly attenuates,significant improvement; also recorded: significantly attenuates,significant improvement; also recorded: significantly attenuates
